Measured values taken from patent US20200016136A1 (VIIV HEALTHCARE UK (NO. 5) LIMITED, priority 2017, published 2020).

Test system: NL-RLuc virus (recombinant NL4-3 HIV with Renilla Luciferase gene)
Assay: Inhibition of HIV replication (NL-RLuc virus in MT-2 cells, luciferase readout)
Format: cell-based, Human immunodeficiency virus (HIV)
Settings: MT2, 120 h
Summary of the method: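 MT-2 cells infected with NL4-3-derived virus carrying Renilla luciferase in place of part of nef, grown 5 days with serial compound dilutions in RPMI 1640/10% FBS. Virus growth read as luciferase expression. EC50 from median effect equation, at least 2 experiments.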

Row | SMILES | EC50
1 | Cc1nc(C)c([C@H](OC(C)(C)C)C(=O)O)c(N2CCC(C)(C)CC2)c1-c1ccc2c(c1)CCN(c1cc(N3CCOCC3)nc(N3CCOCC3)n1)C2 [Example 86, (S)-2-(tert-Butoxy)-2-(4-(4,4-dimethylpiperidin-1-yl)-5-(2-(2,6-dimorpholinopyrimidin-4-yl)-1,2,3,4-tetrahydroisoquinolin-6-yl)-2,6-dimethylpyridin-3-yl)acetic Acid] | 4 nM
2 | CCC(C)(C)O[C@H](C(=O)O)c1c(C)nc(C)c(-c2ccc3c(c2)CCN(c2ncnc4c2oc2ccccc24)C3)c1N1CCC(C)(C)CC1 [Example 141, (S)-2-(5-(2-(Benzofuro[3,2-d]pyrimidin-4-yl)-1,2,3,4-tetrahydroisoquinolin-6-yl)-4-(4,4-dimethylpiperidin-1-yl)-2,6-dimethylpyridin-3-yl)-2-(tert-pentyloxy)acetic Acid] | 2 nM
3 | CC1(C)CCN(c2c(-c3ccc4c(c3)CCN(c3nccc(N5CCOCC5)n3)C4)c(N)nc(Cl)c2[C@H](OC(C)(C)C)C(=O)O)CC1 [Example 167, (S)-2-(6-Amino-2-chloro-4-(4,4-dimethylpiperidin-1-yl)-5-(2-(4-morpholinopyrimidin-2-yl)-1,2,3,4-tetrahydroisoquinolin-6-yl)pyridin-3-yl)-2-(tert-butoxy)acetic Acid] | 4 nM
4 | CC1(C)CCN(c2c(-c3ccc4c(c3)CCN(c3nccc(N5CCC(C(C)(C)O)CC5)n3)C4)cnc(Cl)c2[C@H](OC(C)(C)C)C(=O)O)CC1 [Example 93, (S)-2-(tert-Butoxy)-2-(2-chloro-4-(4,4-dimethylpiperidin-1-yl)-5-(2-(4-(4-(2-hydroxypropan-2-yl)piperidin-1-yl)pyrimidin-2-yl)-1,2,3,4-tetrahydroisoquinolin-6-yl)pyridin-3-yl)acetic Acid] | 8 nM
5 | CC1(C)CCN(c2c(-c3ccc4c(c3)CCN(c3ncnc5c3oc3ncccc35)C4)cnc(Cl)c2[C@H](OC(C)(C)C)C(=O)O)CC1 [Example 92, (S)-2-(tert-Butoxy)-2-(2-chloro-4-(4,4-dimethylpiperidin-1-yl)-5-(2-(pyrido[3′,2′:4,5]furo[3,2-d]pyrimidin-4-yl)-1,2,3,4-tetrahydroisoquinolin-6-yl)pyridin-3-yl)acetic Acid] | 0.6 nM
6 | Cc1nnc(-c2cc(N3CCc4cc(-c5c(C)nc(C)c([C@H](OC(C)(C)C)C(=O)O)c5N5CCC(C)(C)CC5)ccc4C3)ncn2)o1 [Example 131, (S)-2-(tert-Butoxy)-2-(4-(4,4-dimethylpiperidin-1-yl)-2,6-dimethyl-5-(2-(6-(5-methyl-1,3,4-oxadiazol-2-yl)pyrimidin-4-yl)-1,2,3,4-tetrahydroisoquinolin-6-yl)pyridin-3-yl)acetic Acid] | 4 nM
7 | Cc1cccc(Cl)c1CN1CCc2cc(-c3c(NCCN(C)C)nc(C)c([C@H](OC(C)(C)C)C(=O)O)c3N3CCC(C)(C)CC3)ccc2C1 [Example 3, (S)-2-(tert-Butoxy)-2-(5-(2-(2-chloro-6-methylbenzyl)-1,2,3,4-tetrahydroisoquinolin-6-yl)-6-((2-(dimethylamino)ethyl)amino)-4-(4,4-dimethylpiperidin-1-yl)-2-methylpyridin-3-yl)acetic Acid] | 5 nM
8 | Cc1nc(CN2CCC3(CCC3)CC2)c(-c2ccc3c(c2)CCN(c2ncnc4c2oc2ccccc24)C3)c(N2CCC(C)(C)CC2)c1[C@H](OC(C)(C)C)C(=O)O [Example 159, (S)-2-(6-(7-Azaspiro[3.5]nonan-7-ylmethyl)-5-(2-(benzofuro[3,2-d]pyrimidin-4-yl)-1,2,3,4-tetrahydroisoquinolin-6-yl)-4-(4,4-dimethylpiperidin-1-yl)-2-methylpyridin-3-yl)-2-(tert-butoxy)acetic Acid] | 1 nM
9 | Cc1cc(F)ccc1CN1CCc2cc(-c3cnc(C)c([C@H](OC(C)(C)C)C(=O)O)c3N3CCC(C)(C)CC3)ccc2C1 [Example 51, (2S)-2-(tert-Butoxy)-2-[4-(4,4-dimethylpiperidin-1-yl)-5-{2-[(4-fluoro-2-methylphenyl)methyl]-1,2,3,4-tetrahydroisoquinolin-6-yl}-2-methylpyridin-3-yl]acetic Acid] | 4 nM
10 | Cc1nc(C)c([C@H](OC(C)(C)C)C(=O)O)c(N2CCC(C)(C)CC2)c1-c1ccc2c(c1)CCN(c1cc(-c3cccc(Cl)c3)ncn1)C2 [Example 82, (S)-2-(tert-Butoxy)-2-(5-(2-(6-(3-chlorophenyl)pyrimidin-4-yl)-1,2,3,4-tetrahydroisoquinolin-6-yl)-4-(4,4-dimethylpiperidin-1-yl)-2,6-dimethylpyridin-3-yl)acetic Acid] | 15 nM
11 | Cc1nc(C)c([C@H](OC(C)(C)C)C(=O)O)c(N2CCC(C)(C)CC2)c1-c1ccc2c(c1)CCN(c1nc(N3CCOCC3)nn3cccc13)C2 [Example 84, (S)-2-(tert-Butoxy)-2-(4-(4,4-dimethylpiperidin-1-yl)-2,6-dimethyl-5-(2-(2-morpholinopyrrolo[2,1-f][1,2,4]triazin-4-yl)-1,2,3,4-tetrahydroisoquinolin-6-yl)pyridin-3-yl)acetic Acid] | 6 nM
12 | Cc1nc(C)c([C@H](OC(C)(C)C)C(=O)O)c(N2CCC(C)(C)CC2)c1-c1ccc2c(c1)CCN(c1ccnc(N3CCOCC3)n1)C2 [Example 57, (S)-2-(tert-Butoxy)-2-(4-(4,4-dimethylpiperidin-1-yl)-2,6-dimethyl-5-(2-(2-morpholinopyrimidin-4-yl)-1,2,3,4-tetrahydroisoquinolin-6-yl)pyridin-3-yl)acetic Acid] | 0.5 nM
13 | CC1(C)CCN(c2c(-c3ccc4c(c3)CCN(c3nccc(-c5cccnc5)n3)C4)cnc(Cl)c2[C@H](OC(C)(C)C)C(=O)O)CC1 [Example 149, (S)-2-(tert-Butoxy)-2-(2-chloro-4-(4,4-dimethylpiperidin-1-yl)-5-(2-(4-(pyridin-3-yl)pyrimidin-2-yl)-1,2,3,4-tetrahydroisoquinolin-6-yl)pyridin-3-yl)acetic Acid] | 2 nM
14 | Cc1nc(C)c([C@H](OC(C)(C)C)C(=O)O)c(N2CCC(C)(C)CC2)c1-c1ccc2c(c1)CCN(c1nccc(N3CCN(C)CC3)n1)C2 [Example 40, (2S)-2-(tert-Butoxy)-2-[4-(4,4-dimethylpiperidin-1-yl)-2,6-dimethyl-5-{2-[4-(4-methylpiperazin-1-yl)pyrimidin-2-yl]-1,2,3,4-tetrahydroisoquinolin-6-yl}pyridin-3-yl]acetic Acid] | 4 nM
15 | Cc1ccc2c(n1)oc1c(N3CCc4cc(-c5cnc(C)c([C@H](OC(C)(C)C)C(=O)O)c5N5CCC(C)(C)CC5)ccc4C3)ncnc12 [Example 47, (2S)-2-(tert-Butoxy)-2-[4-(4,4-dimethylpiperidin-1-yl)-2-methyl-5-(2-{11-methyl-8-oxa-3,5,10-triazatricyclo[7.4.0.0^2,7]trideca-1(9),2,4,6,10,12-hexaen-6-yl}1,2,3,4tetrahydroisoquinolin-6-yl)pyridin-3-yl]acetic Acid] | 1 nM
16 | Cc1ncc(-c2ccc3c(c2)CCN(c2nccc(N4CCOCC4)n2)C3)c(N2CCC(C)(C)CC2)c1[C@H](OC(C)(C)C)C(=O)O [Example 26, (2S)-2-(tert-Butoxy)-2-[4-(4,4-dimethylpiperidin-1-yl)-2-methyl-5-{2-[4-(morpholin-4-yl)pyrimidin-2-yl]-1,2,3,4-tetrahydroisoquinolin-6-yl}pyridin-3-yl]acetic Acid] | 0.8 nM
